Assay results from ChEMBL document CHEMBL1201862, “PubChem BioAssay data set” (2004).
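Dose response: 5 concentrations. Exposure: 48 h. Format: 96-well plates. Endpoint: linear interpolation; highest concentration if not reached. GI50 marks 50% less growth.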 Active and inactive are the calls of the source. Rule as the data show it: active = GI50 up to about 1.1 µM and inactive = higher.

Experiments:
Assay in all cases: NCI-60 cell line screen, 48 h
[1] = tested on: ACHN
[2] = tested on: OVCAR-5
[3] = tested on: SK-MEL-5
[4] = tested on: COLO 205
[5] = tested on: HCC 2998
[6] = tested on: A498
[7] = tested on: HT-29
[8] = tested on: UACC-257
[9] = tested on: RXF 393
[10] = tested on: HCT-15
[11] = tested on: NCI-H226
[12] = tested on: KM12
[13] = tested on: MDA-MB-435
[14] = tested on: NCI-H522
[15] = tested on: OVCAR-8
[16] = tested on: CAKI-1
[17] = tested on: SK-MEL-2
[18] = tested on: LOX IMVI
[19] = tested on: UACC-62
[20] = tested on: NCI-H460

SMILES	GI50 [1]	GI50 [2]	GI50 [3]	GI50 [4]	GI50 [5]	GI50 [6]	GI50 [7]	GI50 [8]	GI50 [9]	GI50 [10]	GI50 [11]	GI50 [12]	GI50 [13]	GI50 [14]	GI50 [15]	GI50 [16]	GI50 [17]	GI50 [18]	GI50 [19]	GI50 [20]
CC(C)(C)O/N=C/c1cc(NC(=S)c2ccccc2)ccc1Cl	16.4 µM (inactive)	23.8 µM (inactive)	21 µM (inactive)	14.3 µM (inactive)	11.3 µM (inactive)	13.6 µM (inactive)	13.7 µM (inactive)	13.1 µM (inactive)	12.3 µM (inactive)	15.1 µM	16.8 µM (inactive)	12.7 µM (inactive)	27.2 µM (inactive)	11.3 µM (inactive)	17.9 µM (inactive)	29.3 µM (inactive)	16.6 µM (inactive)	15.7 µM (inactive)	14.6 µM (inactive)	6.89 µM (inactive)
CC(C)NC(=O)OCCN=C1c2ccccc2C(Br)C(Br)c2ccccc21 (stereo not given)	7.6 µM (inactive)	12 µM (inactive)	7.19 µM (inactive)	5.13 µM (inactive)	22.7 µM (inactive)	1.62 µM (inactive)	4.7 µM (inactive)	7.35 µM (inactive)	2.87 µM (inactive)	9.75 µM	15.6 µM (inactive)	21.8 µM (inactive)	7.96 µM (inactive)	1.68 µM (inactive)	8 µM (inactive)	7.01 µM (inactive)	23.7 µM (inactive)	2.94 µM (inactive)	10.1 µM (inactive)	10.4 µM (inactive)
CSC1(SC)CCCCCCCCCCC1	34.2 µM (inactive)	53.2 µM (inactive)	35.2 µM (inactive)	19.2 µM (inactive)	20.4 µM (inactive)	> 100 µM (inactive)	31.7 µM (inactive)	27.5 µM (inactive)	25 µM (inactive)	48.1 µM	> 100 µM (inactive)	41.7 µM (inactive)	38.9 µM (inactive)	16.3 µM (inactive)	45.5 µM (inactive)	58.1 µM (inactive)	24 µM (inactive)	18.7 µM (inactive)	46 µM (inactive)	29.8 µM (inactive)
CCOC(=O)N1CC2(C)C=CC1C(C(=O)OC)C2 (stereo not given)	> 100 µM (inactive)	> 100 µM (inactive)	> 100 µM (inactive)	> 100 µM (inactive)	> 100 µM (inactive)	> 100 µM (inactive)	> 100 µM (inactive)	> 100 µM (inactive)	> 100 µM (inactive)	> 100 µM	69.8 µM (inactive)	> 100 µM (inactive)	> 100 µM (inactive)	> 100 µM (inactive)	> 100 µM (inactive)	> 100 µM (inactive)	> 100 µM (inactive)	> 100 µM (inactive)	> 100 µM (inactive)	> 100 µM (inactive)
C=CCc1cccc2cc(C(=O)NCc3ccccc3)c(=N)oc12	19.9 µM (inactive)	54 µM (inactive)	25.5 µM (inactive)	40.6 µM (inactive)	25.1 µM (inactive)	23.4 µM (inactive)	34.4 µM (inactive)	89.3 µM (inactive)	46.3 µM (inactive)	32.2 µM	24.2 µM (inactive)	34.4 µM (inactive)	25.8 µM (inactive)	18.1 µM (inactive)	43.9 µM (inactive)	37 µM (inactive)	12.1 µM (inactive)	42.7 µM (inactive)	22.8 µM (inactive)	28.5 µM (inactive)
